# Assay results reported in US8486885B2, “β-arrestin effectors and compositions and methods of use thereof” (Trevena, Inc., priority 2008, dated 2013).
# pEC50: −log10 of the molar value. Non-standard residues stand in square brackets, D forms with d. Residues, ends and D or L forms follow the SMILES beside them. Sar = CNCC(=O)O
# Key:
# Assay type in all cases: cell-based
# [1] = molecular target: rat angiotensin 2 type 1 receptor (rat AT1aR) (Rattus norvegicus, UniProt P25095); test: PathHunter β-arrestin-2 recruitment assay, rat AT1aR; conditions: PathHunter β-arrestin HEK293 cells; for pEC50: read-out: rat AT1aR b-arrestin2 EC50
# Method: (§1) The proximal event in β-arrestin function mediated by GPCRs is recruitment to receptors following ligand binding and receptor phosphorylation by GRK's. Thus, the measure of β-arrestin recruitment was used to determine ligand efficacy for β-arrestin function.
# (§2) B-arrestin-2 recruitment to the human and rat angiotensin 2 type 1 receptor (human AT1R and rat AT1aR, respectively) was measured with the PathHunter™ β-arrestin assay (DiscoveRx Corporation, Fremont Calif.). Cells, plasmid(s), and detection reagent(s) were purchased from DiscoveRx, and assays were performed per manufacturer's instructions. Human AT1R and rat AT1aR were cloned into the pCMV-ProLink vector, verified by sequencing, and transfected into PathHunter β-arrestin HEK293 cells. Stably transfected clonal cell lines were selected with Hygromycin and G418. These clonal cell lines were used for all experiments.
# (§3) For assays, 25,000 cells were seeded per well in 96-well microplates in volumes of 90 μL and allowed to grow overnight at 37° C. in 5% CO2. Peptides of the invention were dissolved in deionized water to a concentration of 1 mM. Peptides were then further diluted in assay buffer (Hank's balanced salt solution with 20 mM HEPES) to add peptide to the cells to reach final concentrations ranging from 10 μM to 1 pM. Cells were then incubated for 60 minutes at 37° C. in 5% CO2, followed by addition of 50 μL of PathHunter Detection Reagent to each well. The microplates were then incubated at room temperature for 60 minutes, and then luminescence was measured using a NOVOstar microplate reader purchased from BMG Labtech. B-arrestin-2 recruitment to receptors was measured as relative luminescence intensity expressed in arbitrary units.
# Target sequence in this assay (P32121 whole entry partner, one chain of several): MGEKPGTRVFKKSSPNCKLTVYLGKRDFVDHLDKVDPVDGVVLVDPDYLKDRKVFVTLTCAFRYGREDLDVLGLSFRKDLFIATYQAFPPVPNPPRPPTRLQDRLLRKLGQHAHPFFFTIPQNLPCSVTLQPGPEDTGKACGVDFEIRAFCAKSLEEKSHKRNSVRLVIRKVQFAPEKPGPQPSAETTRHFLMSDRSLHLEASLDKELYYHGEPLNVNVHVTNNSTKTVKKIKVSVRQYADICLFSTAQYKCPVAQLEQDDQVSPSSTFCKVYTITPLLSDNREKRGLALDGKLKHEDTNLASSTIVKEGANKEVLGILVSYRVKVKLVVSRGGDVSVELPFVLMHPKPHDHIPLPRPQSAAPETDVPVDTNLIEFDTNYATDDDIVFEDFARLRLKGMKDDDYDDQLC
# [2] = molecular target: T1, human angiotensin 2 type 1 receptor (human AT1R) (Homo sapiens, UniProt P30556); test: IP1 accumulation assay (IP-One Tb), human AT1R; conditions: cells expressing human AT1R
# T1 construct: expressed in transfected cells
# T1 sequence (P30556 1-359): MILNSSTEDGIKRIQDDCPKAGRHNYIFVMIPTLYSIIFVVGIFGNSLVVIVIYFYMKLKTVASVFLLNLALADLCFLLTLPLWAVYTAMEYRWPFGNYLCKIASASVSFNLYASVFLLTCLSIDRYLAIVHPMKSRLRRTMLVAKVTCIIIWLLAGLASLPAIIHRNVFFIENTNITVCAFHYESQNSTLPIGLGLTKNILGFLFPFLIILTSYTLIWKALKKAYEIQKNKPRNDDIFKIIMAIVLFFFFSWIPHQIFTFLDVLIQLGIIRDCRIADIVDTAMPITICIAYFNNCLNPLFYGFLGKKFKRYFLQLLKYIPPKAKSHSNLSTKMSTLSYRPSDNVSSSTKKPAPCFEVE
# Method: (§4) A secondary measure of G protein coupling efficacy was also performed. IP3 is generated by activation of phospholipase C by Gα-q. IP3 is degraded to IP1, which can be forced to accumulate in cells by blocking degradation with lithium chloride. Thus we measured accumulation of IP1 to determine ligand efficacy for G protein activation.
# (§5) IP1 accumulation generated by human and rat angiotensin 2 type 1 receptor (human AT1R and rat AT1aR, respectively) was measured with IP-One Tb kits purchased from Cisbio and used per the manufacturer's instructions. Clonal stably transfected cell lines expressing human AT1TR or rat AT1aR were used for all experiments.
# (§6) For assays, 4,000 cells were seeded per well in 384-well small-volume microplates in volumes of 20 uL and allowed to grow overnight at 37° C. in 5% CO2. Cell growth media was then replaced with stimulation buffer supplied by Cisbio containing 50 mM lithium chloride. Peptides TRV-120,001 through TRV-120,035 were dissolved in deionized water to a concentration of 1 mM. For agonist detection, peptides were then further diluted in stimulation buffer to add peptide to the cells to reach final concentrations ranging from 10 uM to 1 pM. […] Following addition of peptides, cells were incubated at 37° C. in 5% CO2 for 30 minutes and then lysed with detection reagents added per manufacturer's instructions.
# [3] = molecular target: human angiotensin 2 type 1 receptor (human AT1R) (Homo sapiens, UniProt P30556); test: PathHunter β-arrestin-2 recruitment assay, human AT1R; conditions: PathHunter β-arrestin HEK293 cells
# Method: as §1, §2, §3
# Target sequence in this assay (P32121 whole entry partner, one chain of several): as the sequence (P32121 whole entry partner, one chain of several) above
# [4] = molecular target: T2, rat angiotensin 2 type 1 receptor (rat AT1aR) (Rattus norvegicus, UniProt P25095); test: IP1 accumulation assay (IP-One Tb), rat AT1aR; conditions: cells expressing rat AT1aR
# T2 construct: expressed in transfected cells
# T2 sequence (P25095 1-359): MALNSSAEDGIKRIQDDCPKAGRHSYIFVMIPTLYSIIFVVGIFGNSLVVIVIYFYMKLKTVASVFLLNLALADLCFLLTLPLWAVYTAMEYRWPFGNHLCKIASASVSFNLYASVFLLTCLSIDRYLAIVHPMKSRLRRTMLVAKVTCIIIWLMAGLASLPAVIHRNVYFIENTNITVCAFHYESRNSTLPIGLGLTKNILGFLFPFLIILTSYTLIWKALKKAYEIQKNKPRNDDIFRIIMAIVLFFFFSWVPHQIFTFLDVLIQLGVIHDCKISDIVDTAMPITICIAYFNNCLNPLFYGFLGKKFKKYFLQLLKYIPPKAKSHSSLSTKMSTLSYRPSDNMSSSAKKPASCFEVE
# Method: as §4, §5, §6
Compound,rat AT1aR b-arrestin2 Max (%) [1] [%],pEC50 [1],human AT1R IP One EC50 (M) [2],human AT1R b-arrestin2 Max (%) [3] [%],rat AT1aR IP One Max (%) [4] [%],pEC50 ([3]; read-out: human AT1R b-arrestin2 EC50),rat AT1aR IP One EC50 (M) [4],pEC50 [4]
"CNCC(=O)N[C@@H](CCCNC(=N)N)C(=O)N[C@H](C(=O)N[C@@H](Cc1ccc(O)cc1)C(=O)N[C@@H](CCCNC(=N)N)C(=O)N[C@@H](Cc1c[nH]cn1)C(=O)N1CCC[C@H]1C(N)=O)C(C)C [SEQ ID NO:45, Sar-Arg-Val-Tyr-Arg-His-Pro-NH2] (H-[Sar]RVYRHP-NH2; N-terminus assumed)",91.7,7.57,inactive,53.3,10.2,–,–,–
"CC[C@H](C)[C@H](NC(=O)[C@H](Cc1ccc(O)cc1)NC(=O)[C@@H](NC(=O)[C@H](CCCCN)NC(=O)CNC)C(C)C)C(=O)N[C@@H](Cc1c[nH]cn1)C(=O)N1CCC[C@H]1C(=O)N[C@H](C)C(=O)O [SEQ ID NO:49, Sar-Lys-Val-Tyr-Ile-His-Pro-D-Ala-OH]",52.9,6.20,inactive,72.7,–,6.00,Inactive,–
"CC[C@H](C)[C@H](NC(=O)[C@H](Cc1ccccc1)NC(=O)[C@@H](NC(=O)[C@H](CCCNC(=N)N)NC(=O)CNC)C(C)C)C(=O)N[C@@H](Cc1c[nH]cn1)C(=O)N1CCC[C@H]1C(=O)N[C@H](C)C(=O)O [SEQ ID NO:48, Sar-Arg-Val-Phe-Ile-His-Pro-D-Ala-OH]",42.1,–,inactive,48.1,13.9,–,–,6.70
